Measured values from PubChem BioAssay AID330 (DTP/NCI, 2004).
Values joined by “and” are separate entries in the source; they are usually repeats but may differ in a detail not shown here. Equal entries are not always repeated. Inconclusive results and toxic doses are left out. Peptide text beside a SMILES is read from it. * marks the point of attachment. βNA = c1ccc2cc(N*)ccc2c1

Test system: P388 leukemia ip, CD2F1 mice, survival T/C
Test: NCI In Vivo Anticancer Drug Screen. Data for tumor model P388 Leukemia (intraperitoneal) in CD2F1 (CDF1) mice
Details: endpoint: median survival time, higher = longer survival
Procedure, shortened: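 Mice carrying the transplanted tumor received test compound or vehicle. Survival was recorded in each group, and the value is the treated-group measurement divided by that of the vehicle-treated control group.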

[1] = dose: 12.5 mg/kg/injection, schedule: Q01DX009 (ip), vehicle: Klucel (hydroxypropylcellulose) (HPC)
[2] = dose: 25.0 mg/kg/injection, schedule: Q01DX009 (ip), vehicle: Klucel (hydroxypropylcellulose) (HPC)
[3] = dose: 50.0 mg/kg/injection, schedule: Q01DX009 (ip), vehicle: Klucel (hydroxypropylcellulose) (HPC)
[4] = dose: 100.0 mg/kg/injection, schedule: Q01DX009 (ip), vehicle: Klucel (hydroxypropylcellulose) (HPC)
[5] = dose: 50.0 mg/kg/injection, schedule: Q01DX005 (ip), vehicle: Klucel (hydroxypropylcellulose) (HPC)
[6] = dose: 100.0 mg/kg/injection, schedule: Q01DX005 (ip), vehicle: Klucel (hydroxypropylcellulose) (HPC)
[7] = dose: 60.0 mg/kg/injection, schedule: Q01DX005 (ip), vehicle: saline with Tween-80
[8] = dose: 120.0 mg/kg/injection, schedule: Q01DX005 (ip), vehicle: saline with Tween-80
[9] = dose: 240.0 mg/kg/injection, schedule: Q01DX005 (ip), vehicle: saline with Tween-80
[10] = dose: 50.0 mg/kg/injection, schedule: Q01DX009 (ip), vehicle: saline with Tween-80
[11] = dose: 100.0 mg/kg/injection, schedule: Q01DX009 (ip), vehicle: saline with Tween-80
[12] = dose: 60.0 mg/kg/injection, schedule: Q01DX005 (ip), vehicle: Klucel (hydroxypropylcellulose) (HPC)
[13] = dose: 120.0 mg/kg/injection, schedule: Q01DX005 (ip), vehicle: Klucel (hydroxypropylcellulose) (HPC)
[14] = dose: 12.5 mg/kg/injection, schedule: Q04DX003 (ip), vehicle: saline with Tween-80
[15] = dose: 25.0 mg/kg/injection, schedule: Q04DX003 (ip), vehicle: saline with Tween-80
[16] = dose: 200.0 mg/kg/injection, schedule: Q01DX009 (ip), vehicle: Klucel (hydroxypropylcellulose) (HPC)
[17] = dose: 6.25 mg/kg/injection, schedule: Q01DX009 (ip), vehicle: Klucel (hydroxypropylcellulose) (HPC)
[18] = dose: 50.0 mg/kg/injection, schedule: Q01DX001 (ip), vehicle: saline with Tween-80
[19] = dose: 100.0 mg/kg/injection, schedule: Q01DX001 (ip), vehicle: saline with Tween-80
[20] = dose: 200.0 mg/kg/injection, schedule: Q01DX001 (ip), vehicle: saline with Tween-80
[21] = dose: 400.0 mg/kg/injection, schedule: Q01DX001 (ip), vehicle: saline with Tween-80

With `CCOC(=O)Nc1cc2c(c(N)n1)N=C(c1ccccc1)C(C)N2` (configuration not stated) the T/C (dose: 0.5 mg/kg/injection, schedule: Q01DX005 (ip), vehicle: saline) was 123 % of control, the T/C (dose: 0.75 mg/kg/injection, schedule: Q01DX005 (ip), vehicle: saline) was 121 % of control and the T/C (dose: 1.0 mg/kg/injection, schedule: Q01DX005 (ip), vehicle: saline) was 171 % of control.

In the case of `NC(=O)c1ccc[n+](Cc2ccccc2)c1`, the T/C [1] is reported as 110 % of control, the T/C [2] is reported as 91 % of control and the T/C [3] is reported as 112 % of control. For the same compound, the T/C [4] was 93 % of control.

`O=[N+]([O-])CC(O)C(Cl)(Cl)Cl` (configuration not stated) was tested, and the T/C (dose: 50.0 mg/kg/injection, schedule: Q01DX001 (ip), vehicle: saline) was 107 % of control, the T/C (dose: 100.0 mg/kg/injection, schedule: Q01DX001 (ip), vehicle: saline) was 107 % of control and the T/C (dose: 200.0 mg/kg/injection, schedule: Q01DX001 (ip), vehicle: saline) was 107 % of control.

`CCCCCCC(=O)/C=C/c1ccc(C)cc1` was tested, and the T/C [5] was 100 % of control, the T/C [6] was 100 % of control and the T/C (dose: 200.0 mg/kg/injection, schedule: Q01DX005 (ip), vehicle: Klucel (hydroxypropylcellulose) (HPC)) was 94 % of control.

In the case of `CSC(=S)n1nc(-c2cccs2)c(N=Nc2ccc([N+](=O)[O-])cc2)c1C(F)(F)F`, the T/C [7] is reported as 94 % of control, the T/C [8] is reported as 88 % of control and the T/C [9] is reported as 97 % of control.

For `CC(=O)OC1=CC2C(OC1=O)C1C=CC2(OC(C)=O)C(=O)O1` (configuration not stated), the T/C [10] was 102 % of control, the T/C [11] was 104 % of control and the T/C (dose: 200.0 mg/kg/injection, schedule: Q01DX009 (ip), vehicle: saline with Tween-80) was 113 % of control.

With `O=C(O)C1C(CCl)=C1CCl` the T/C [12] was 100 % of control and the T/C [13] was 104 % of control.

In the case of `O=S1(=O)C=C(Cl)C1`, the T/C (dose: 50.0 mg/kg/injection, schedule: Q01DX005 (ip), vehicle: saline with Tween-80) is reported as 110 % of control and the T/C (dose: 100.0 mg/kg/injection, schedule: Q01DX005 (ip), vehicle: saline with Tween-80) is reported as 96 % of control.

With `CN(C)C(C#C[Si](C)(C)C)CO` (configuration not stated) the T/C (dose: 100.0 mg/kg/injection, schedule: Q04DX003 (ip), vehicle: saline) was 104 % of control, the T/C (dose: 200.0 mg/kg/injection, schedule: Q04DX003 (ip), vehicle: saline) was 100 % of control and the T/C (dose: 400.0 mg/kg/injection, schedule: Q04DX003 (ip), vehicle: saline) was 97 % of control.

In the case of `Cc1ccc(NC(=O)OCCN(C)C(=O)Nc2ccc(C)cc2C)c(C)c1`, the T/C (dose: 30.0 mg/kg/injection, schedule: Q01DX005 (ip), vehicle: Klucel (hydroxypropylcellulose) (HPC)) is reported as 98 % of control, the T/C [12] is reported as 103 % of control and 94 % of control and the T/C [13] is reported as 98 % of control. The T/C (dose: 240.0 mg/kg/injection, schedule: Q01DX005 (ip), vehicle: Klucel (hydroxypropylcellulose) (HPC)) was 86 % of control.

In the case of `O=c1[nH]c2ccccc2nc1Cl`, the T/C (dose: 25.0 mg/kg/injection, schedule: Q01DX009 (ip), vehicle: saline with Tween-80) is reported as 100 % of control, the T/C [10] is reported as 98 % of control and the T/C [11] is reported as 97 % of control.

`Nc1ccccc1-c1nnc(-c2ccccc2)o1` was tested, and the T/C [7] was 100 % of control, the T/C [8] was 89 % of control and the T/C [9] was 86 % of control.

With `COC(=O)CC1(C(=O)OC)C2=C(c3ccccc3CC2)N2CCCC21` (configuration not stated) the T/C (dose: 11.25 mg/kg/injection, schedule: Q01DX009 (ip), vehicle: Klucel (hydroxypropylcellulose) (HPC)) was 110 % of control, the T/C (dose: 22.5 mg/kg/injection, schedule: Q01DX009 (ip), vehicle: Klucel (hydroxypropylcellulose) (HPC)) was 110 % of control and the T/C (dose: 45.0 mg/kg/injection, schedule: Q01DX009 (ip), vehicle: Klucel (hydroxypropylcellulose) (HPC)) was 102 % of control. For the same compound, the T/C (dose: 90.0 mg/kg/injection, schedule: Q01DX009 (ip), vehicle: Klucel (hydroxypropylcellulose) (HPC)) was 112 % of control.

With `CCCCSc1ccc(NN=O)nc1` the T/C (dose: 1.56 mg/kg/injection, schedule: Q01DX009 (ip), vehicle: water) was 118 % of control and the T/C (dose: 6.25 mg/kg/injection, schedule: Q01DX009 (ip), vehicle: water) was 151 % of control.

In the case of `[Cl][Pt].c1ccc([PH+](CCC[PH+](c2ccccc2)c2ccccc2)CCC[PH+](c2ccccc2)c2ccccc2)cc1`, the T/C [14] is reported as 109 % of control, the T/C [15] is reported as 109 % of control and the T/C (dose: 50.0 mg/kg/injection, schedule: Q04DX003 (ip), vehicle: saline with Tween-80) is reported as 97 % of control. For the same compound, the T/C (dose: 100.0 mg/kg/injection, schedule: Q04DX003 (ip), vehicle: saline with Tween-80) was 95 % of control and the T/C (dose: 200.0 mg/kg/injection, schedule: Q04DX003 (ip), vehicle: saline with Tween-80) was 104 % of control.

In the case of `Oc1ccc(Nc2ccc3[nH]c4ccccc4c3c2)cc1`, the T/C (dose: 25.0 mg/kg/injection, schedule: Q01DX005 (ip), vehicle: Klucel (hydroxypropylcellulose) (HPC)) is reported as 101 % of control, the T/C [5] is reported as 106 % of control and the T/C [6] is reported as 104 % of control.

With `N#[N+]c1ccc2c(S(=O)(=O)Nc3ccc(-c4ccc(NS(=O)(=O)c5cccc6c([O-])c([N+]#N)ccc56)cc4)cc3)cccc2c1[O-]` the T/C [3] was 102 % of control, the T/C [4] was 99 % of control and the T/C [16] was 98 % of control.

For `ClCCn1c(CCl)nc2ccc(Cl)cc21`, the T/C (dose: 3.12 mg/kg/injection, schedule: Q01DX009 (ip), vehicle: Klucel (hydroxypropylcellulose) (HPC)) was 93 % of control, the T/C [17] was 101 % of control and the T/C [1] was 100 % of control. For the same compound, the T/C [2] was 100 % of control.

In the case of `O=C(N=[N+]([O-])c1ccccc1)c1ccccc1`, the T/C (dose: 3.12 mg/kg/injection, schedule: Q01DX001 (ip), vehicle: saline with Tween-80) is reported as 107 % of control, the T/C (dose: 6.25 mg/kg/injection, schedule: Q01DX001 (ip), vehicle: saline with Tween-80) is reported as 110 % of control and the T/C (dose: 6.25 mg/kg/injection, schedule: Q04DX003 (ip), vehicle: saline with Tween-80) is reported as 109 % of control and 118 % of control. For the same compound, the T/C (dose: 12.5 mg/kg/injection, schedule: Q01DX001 (ip), vehicle: saline with Tween-80) was 99 % of control, the T/C [14] was 114 % of control and 117 % of control and the T/C [15] was 89 % of control and 95 % of control.

`Cc1ccc2ncc([N+](=O)[O-])n2c1` was tested, and the T/C [18] was 94 % of control, the T/C [19] was 97 % of control and the T/C [20] was 90 % of control. For the same compound, the T/C [21] was 94 % of control.

In the case of `CC1(C)Cc2oc(=O)n(-c3ccccc3)c(=O)c2C1`, the T/C [3] is reported as 100 % of control, the T/C [4] is reported as 102 % of control and the T/C [16] is reported as 100 % of control.

With `Cn1c(=O)c2c(nc(N3CCN(CCO)CC3)n2CC(O)CCl)n(C)c1=O` (configuration not stated) the T/C (dose: 50.0 mg/kg/injection, schedule: Q01DX005 (ip), vehicle: water) was 100 % of control, the T/C (dose: 100.0 mg/kg/injection, schedule: Q01DX005 (ip), vehicle: water) was 99 % of control and the T/C (dose: 200.0 mg/kg/injection, schedule: Q01DX005 (ip), vehicle: water) was 99 % of control.

`CC(N)C(=O)NC(Cc1ccccc1)C(=O)N1CCCC1C(=O)Nc1ccc2ccccc2c1` (stereo not drawn) (H-Ala-Phe-Pro-βNA; configuration not given here) was tested, and the T/C (dose: 50.0 mg/kg/injection, schedule: Q01DX005 (ip), vehicle: saline) was 106 % of control and the T/C (dose: 100.0 mg/kg/injection, schedule: Q01DX005 (ip), vehicle: saline) was 92 % of control.

With `C=CC1(C)OC(=O)c2cc(C)c(OC)cc21` (configuration not stated) the T/C [18] was 100 % of control, the T/C [19] was 100 % of control and the T/C [20] was 95 % of control. The T/C [21] was 94 % of control.

In the case of `O=[N+]([O-])c1ccc(F)c(Cl)c1`, the T/C (dose: 100.0 mg/kg/injection, schedule: Q04DX003 (ip), vehicle: other) is reported as 100 % of control and the T/C (dose: 200.0 mg/kg/injection, schedule: Q04DX003 (ip), vehicle: other) is reported as 100 % of control.

For `CC1(C)OC2OC(C3COS(=O)O3)C(Cl)C2O1` (configuration not stated), the T/C [7] was 107 % of control, the T/C [8] was 113 % of control and the T/C [9] was 114 % of control.

`O=C1C=C(Cl)C(=O)C(c2ccc(Cl)cc2)=C1` was tested, and the T/C [17] was 100 % of control, the T/C [1] was 96 % of control and the T/C [3] was 92 % of control.
